Read-outs that look alike come from different tables or passages of the source.
Columns and labels:
[1] = molecular target: T1, hCNT2 (SLC28A2) (Homo sapiens, UniProt O43868); assay: Inhibition of [^3H]uridine uptake in yeast cells producing recombinant hCNT2; type: cell-based
T1 construct: expressed in transfected cells; host or cells: Saccharomyces cerevisiae
T1 sequence (O43868 1-658): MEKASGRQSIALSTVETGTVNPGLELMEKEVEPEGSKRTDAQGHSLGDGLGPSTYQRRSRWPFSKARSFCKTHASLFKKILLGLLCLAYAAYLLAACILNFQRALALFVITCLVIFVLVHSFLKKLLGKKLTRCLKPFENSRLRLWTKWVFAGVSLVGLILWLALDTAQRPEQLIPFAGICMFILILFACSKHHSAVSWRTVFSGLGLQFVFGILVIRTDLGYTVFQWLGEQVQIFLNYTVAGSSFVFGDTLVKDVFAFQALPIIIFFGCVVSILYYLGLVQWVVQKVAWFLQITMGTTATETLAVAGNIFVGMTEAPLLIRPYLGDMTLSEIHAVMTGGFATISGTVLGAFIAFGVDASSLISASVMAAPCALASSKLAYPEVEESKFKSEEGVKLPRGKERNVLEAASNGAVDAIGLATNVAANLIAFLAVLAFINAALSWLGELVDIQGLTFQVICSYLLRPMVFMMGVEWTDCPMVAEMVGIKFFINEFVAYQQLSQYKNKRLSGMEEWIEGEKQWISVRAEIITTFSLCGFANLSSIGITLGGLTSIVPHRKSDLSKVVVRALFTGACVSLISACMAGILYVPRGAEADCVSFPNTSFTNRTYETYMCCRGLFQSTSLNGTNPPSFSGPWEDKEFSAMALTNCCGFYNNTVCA
Method: (§1) The interaction of 2-nitroimidazole sugars with nucleoside transporters was determined by ability of the 2-nitroimidazole sugars to inhibit [^3H]uridine uptake in yeast cells producing recombinant human nucleoside transporters and results expressed as IC50 values.
(§2) Saccharomyces cerevisiae yeast was separately transformed with plasmids (pYPhENT1, pYPhENT2, pYPhCNT1, pYPhCNT2, or pYPhCNT3) encoding hNTs (hENT1, hENT2, hCNT1, hCNT2, or hCNT3, respectively) as described elsewhere. Uptake of 1 µmol/L [^3H]uridine (Moravek Biochemicals) into yeast was measured as previously described using a semi-automated cell harvester (Micro96 HARVESTER; Skatron Instruments, Tranby, Norway). Yeast was incubated at room temperature with 1 µmol/L [^3H]uridine in yeast growth media (pH 7.4) in the presence or absence (uninhibited controls) of graded concentrations (0–3 mM) of test compounds. The following compounds were used for transporter experiments: FAZA, β-FAZA, α-FAZDR, β-FAZDR. Uridine self-inhibition was used to determine maximum inhibition of mediated transport. Concentration–effect curves were subjected to nonlinear regression analysis using Prism software (version 4.03; GraphPad Software Inc.) to obtain the concentration of test compound that inhibited uridine uptake by 50%, relative to that of untreated cells (IC50 values). Each IC50 value determination was conducted with nine concentrations and four replicates per concentration and experiments were repeated two to three times.

[2] = molecular target: T2, hENT1 (SLC29A1) (Homo sapiens, UniProt Q99808); assay: Inhibition of [^3H]uridine uptake in yeast cells producing recombinant hENT1; type: cell-based
T2 construct: expressed in transfected cells; host or cells: Saccharomyces cerevisiae
T2 sequence (Q99808 1-456): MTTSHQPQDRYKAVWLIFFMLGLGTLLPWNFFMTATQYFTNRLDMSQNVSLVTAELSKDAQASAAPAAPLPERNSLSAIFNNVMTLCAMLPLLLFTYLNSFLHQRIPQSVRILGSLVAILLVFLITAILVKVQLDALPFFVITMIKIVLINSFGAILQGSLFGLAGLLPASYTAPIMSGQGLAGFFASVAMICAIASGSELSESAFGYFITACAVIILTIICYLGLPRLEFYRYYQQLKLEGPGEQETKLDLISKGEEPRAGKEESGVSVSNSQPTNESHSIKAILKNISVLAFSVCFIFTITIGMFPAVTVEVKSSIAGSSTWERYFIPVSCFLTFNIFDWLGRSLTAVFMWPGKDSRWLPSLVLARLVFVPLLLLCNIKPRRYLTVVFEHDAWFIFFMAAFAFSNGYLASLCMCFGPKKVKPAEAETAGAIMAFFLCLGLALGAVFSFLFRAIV
Method: as §1, §2

[3] = molecular target: T3, hCNT3 (SLC28A3) (Homo sapiens, UniProt Q9HAS3); assay: Inhibition of [^3H]uridine uptake in yeast cells producing recombinant hCNT3; type: cell-based
T3 construct: expressed in transfected cells; host or cells: Saccharomyces cerevisiae
T3 sequence (Q9HAS3 1-691): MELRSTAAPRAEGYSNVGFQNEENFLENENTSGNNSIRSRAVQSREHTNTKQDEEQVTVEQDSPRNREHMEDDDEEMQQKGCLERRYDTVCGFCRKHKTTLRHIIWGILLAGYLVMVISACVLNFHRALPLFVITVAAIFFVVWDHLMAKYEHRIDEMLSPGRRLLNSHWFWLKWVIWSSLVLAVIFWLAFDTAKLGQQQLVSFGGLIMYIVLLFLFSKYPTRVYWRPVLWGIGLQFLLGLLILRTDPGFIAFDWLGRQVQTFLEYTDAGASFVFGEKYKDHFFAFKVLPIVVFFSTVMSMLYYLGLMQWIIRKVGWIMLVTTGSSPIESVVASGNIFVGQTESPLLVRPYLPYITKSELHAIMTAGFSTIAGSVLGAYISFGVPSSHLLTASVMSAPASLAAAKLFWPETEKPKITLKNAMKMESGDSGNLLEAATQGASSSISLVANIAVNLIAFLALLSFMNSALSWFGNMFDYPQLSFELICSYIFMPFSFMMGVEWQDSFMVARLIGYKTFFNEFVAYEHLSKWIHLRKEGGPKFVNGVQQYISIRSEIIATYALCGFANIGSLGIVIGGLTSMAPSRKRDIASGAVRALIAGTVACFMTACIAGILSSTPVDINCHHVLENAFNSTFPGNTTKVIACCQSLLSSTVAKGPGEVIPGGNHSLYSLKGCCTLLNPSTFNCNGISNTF
Method: as §1, §2

[4] = molecular target: T4, hENT2 (SLC29A2) (Homo sapiens, UniProt Q14542); assay: Inhibition of [^3H]uridine uptake in yeast cells producing recombinant hENT2; type: cell-based
T4 construct: expressed in transfected cells; host or cells: Saccharomyces cerevisiae
T4 sequence (Q14542 1-456): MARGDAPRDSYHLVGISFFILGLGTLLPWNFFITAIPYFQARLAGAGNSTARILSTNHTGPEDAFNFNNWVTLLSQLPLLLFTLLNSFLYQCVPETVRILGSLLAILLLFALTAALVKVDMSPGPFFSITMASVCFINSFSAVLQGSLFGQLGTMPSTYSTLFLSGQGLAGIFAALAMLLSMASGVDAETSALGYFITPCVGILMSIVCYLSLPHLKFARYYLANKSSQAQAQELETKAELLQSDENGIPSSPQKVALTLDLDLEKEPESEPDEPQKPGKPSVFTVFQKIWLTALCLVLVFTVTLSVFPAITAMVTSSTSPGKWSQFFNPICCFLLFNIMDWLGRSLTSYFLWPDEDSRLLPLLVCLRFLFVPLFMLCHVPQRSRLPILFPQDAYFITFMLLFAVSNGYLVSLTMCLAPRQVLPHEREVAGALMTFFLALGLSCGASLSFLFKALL
Method: as §1, §2

[5] = molecular target: T5, hCNT1 (SLC28A1) (Homo sapiens, UniProt O00337); assay: Inhibition of [^3H]uridine uptake in yeast cells producing recombinant hCNT1; type: cell-based
T5 construct: expressed in transfected cells; host or cells: Saccharomyces cerevisiae
T5 sequence (O00337 1-649): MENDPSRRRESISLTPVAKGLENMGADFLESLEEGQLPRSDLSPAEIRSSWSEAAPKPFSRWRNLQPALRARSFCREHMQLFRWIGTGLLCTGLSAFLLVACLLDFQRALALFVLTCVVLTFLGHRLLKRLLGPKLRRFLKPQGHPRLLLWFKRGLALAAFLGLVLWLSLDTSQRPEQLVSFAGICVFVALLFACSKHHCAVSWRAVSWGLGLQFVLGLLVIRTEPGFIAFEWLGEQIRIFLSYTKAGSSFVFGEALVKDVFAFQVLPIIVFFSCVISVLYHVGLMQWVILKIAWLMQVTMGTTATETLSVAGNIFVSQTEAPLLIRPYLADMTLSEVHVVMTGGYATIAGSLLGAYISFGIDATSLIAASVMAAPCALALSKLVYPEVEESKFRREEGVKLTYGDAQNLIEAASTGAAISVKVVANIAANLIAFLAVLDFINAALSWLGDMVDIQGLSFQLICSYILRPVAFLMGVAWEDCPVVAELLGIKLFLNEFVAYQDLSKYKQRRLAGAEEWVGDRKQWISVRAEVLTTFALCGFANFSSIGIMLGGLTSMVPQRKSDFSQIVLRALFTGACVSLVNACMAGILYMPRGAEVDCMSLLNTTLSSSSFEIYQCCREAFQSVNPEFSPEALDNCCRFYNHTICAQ
Method: as §1, §2

[6] = tested on: CT26 colon carcinoma; assay: PET hypoxia imaging of CT26 colon carcinoma bearing mice; type: in vivo, BALB/c mice; conditions: for tumor uptake: hypoxic CT26 tumor tissue; for tumor uptake / muscle uptake: PET; for tumor-to-muscle ratio (TMR): i.v., CT26 tumor vs. shoulder muscle, mean ± SD; for muscle uptake: normoxic muscle tissue
Method: The above-described CT26 mouse colon carcinoma cells were subcutaneously inoculated in the right shoulder of female BALB/c mice (1 × 10^6 cells in phosphate-buffered saline, PBS). Subsequently, the carcinomas were allowed to grow for a period of 13 days, reaching approximately 0.3 cm3. […] All animal experiments were conducted according to guidelines for the use and care of laboratory research animals under the German Animal Protection Law, and approved by local authorities (Regierungspräsidium Tübingen). […] All experiments were done using medical air as carrier gas for isoflurane anesthesia (1.5% isoflurane during PET scans, flow rate 0.4 L/min), including tracer injections, with a specialized vaporizer ([…], Louisville, KY, USA). Subsequent to the tracer injections, the animals were allowed to freely move in their home cages for an uptake period of 55 min, thus, breathing room air. […] PET scans were performed with a Siemens Inveon dedicated PET (DPET, Siemens Healthcare, Knoxville, TN, USA). PET scans were then reconstructed with a two-dimensional ordered subset expectation maximization algorithm (OSEM2D with 16 subsets and 4 iterations). Image zoom was set to 1 and matrix size to 128 × 128 yielding a final PET image spatial resolution of 0.79 × 0.79 × 0.80 mm3. PET data were manually corrected for radioactive decay of ^18F. PET image analysis was performed using the PMOD 3.2_base 64 image viewing tool (PMOD Technologies, Zürich, Switzerland). […] Finally, PET data were expressed as percent injected dose per cubic-centimeter (%ID/cc) or tumor-to-muscle ratio (TMR).

[7] = inhibition of 1 µmol/L [^3H]uridine transport, yeast, 0–3 mM test compound, mean ± SE, n = 2–3, NI = no interaction

Row | SMILES | IC50 [3] | IC50 [4] | IC50 [5] | tumor uptake ([6]; 1 h p.i.) | tumor-to-muscle ratio (TMR) ([6]; 1 h p.i.) | muscle uptake ([6]; 1 h p.i.) | muscle clearance ([6]; 2 h p.i. relative to 1 h p.i.) | tumor clearance ([6]; 2 h p.i. relative to 1 h p.i.) | clearance ratio for tumor relative to muscle tissue ([6]; 3 h p.i.) | muscle clearance ([6]; 3 h p.i. relative to 1 h p.i.) | tumor clearance ([6]; 3 h p.i. relative to 1 h p.i.) | tumor uptake ([6]; 3 h p.i.) | muscle uptake ([6]; 3 h p.i.) | further results
1 | O=[N+]([O-])c1nccn1C1CC(O)C(CF)O1 (stereo not drawn) [α-FAZDR] |  |  |  |  |  |  |  |  |  |  |  |  |  | IC50 [1, 7]: > 3 mM; IC50 hCNT2 (SLC28A2) [1, 7]: no interaction; IC50 [2, 7]: > 3 mM; IC50 hENT1 (SLC29A1) [2, 7]: no interaction; IC50 [3, 7]: > 3 mM; IC50 hCNT3 (SLC28A3) [3, 7]: no interaction; IC50 [4, 7]: > 3 mM; IC50 hENT2 (SLC29A2) [4, 7]: no interaction; IC50 [5, 7]: > 3 mM; IC50 hCNT1 (SLC28A1) [5, 7]: no interaction
2 | O=[N+]([O-])c1nccn1[C@@H]1O[C@H](CF)[C@@H](O)[C@@H]1O [β-FAZA, 1-(5′-Deoxy-5′-fluoro-β-D-arabinofuranosyl)-2-nitroimidazole] | 2.31 ± 0.352 mM | > 3 mM | > 3 mM |  |  |  |  |  |  |  |  |  |  | IC50 [1]: > 3 mM; IC50 [2]: 2.07 ± 0.05 mM
3 | O=[N+]([O-])c1nccn1C1CC(O)C(CF)O1 (stereo not drawn) [β-FAZDR] | 0.124 ± 0.033 mM | > 3 mM | 0.269 ± 0.004 mM |  |  |  |  |  |  |  |  |  |  | 
4 | O=[N+]([O-])c1nccn1[C@@H]1C[C@H](O)[C@@H](C[18F])O1 [α-[^18F]FAZDR, 1′-α-[2′,5′-dideoxy-5′-[^18F]fluoro-D-ribofuranosyl]-2-nitroimidazole] |  |  |  | 1.90 ± 0.48 %ID/cc | 1.93 ± 0.39 | 1.01 ± 0.32 %ID/cc | 53.3 ± 8.3% | 34.2 ± 7.5% | 0.79 ± 0.12 | 70.3 ± 5.5% | 55.3 ± 8.3% | 0.88 ± 0.42 %ID/cc | 0.31 ± 0.15 %ID/cc | 
5 | O=[N+]([O-])c1nccn1CC(O)C[18F] (centres unmarked) [[^18F]FMISO, reference compound] |  |  |  | 2.49 ± 0.88 %ID/cc | 1.37 ± 0.11 | 1.81 ± 0.58 %ID/cc | 37.2 ± 4.3% | 11.8 ± 6.5% | 0.45 ± 0.17 | 58.6 ± 3.3% | 26.9 ± 10.1% |  |  | 
6 | O=[N+]([O-])c1nccn1[C@H]1C[C@H](O)[C@@H](C[18F])O1 [β-[^18F]FAZDR, [^18F]fluoro-azomycin-β-deoxyriboside] |  |  |  | 0.40 ± 0.07 %ID/cc | 2.52 ± 0.94 | 0.17 ± 0.03 %ID/cc | 58.4 ± 8.2% | 56.6 ± 6.8% | 0.95 ± 0.02 | 75.3 ± 6.4% | 71.5 ± 7.0% | 0.12 ± 0.05 %ID/cc | 0.04 ± 0.01 %ID/cc | tumor uptake ([6]; 2 h p.i.): 0.18 ± 0.06 %ID/cc; tumor-to-muscle ratio (TMR) ([6]; 2 h p.i.): 2.65 ± 0.87; muscle uptake ([6]; 2 h p.i.): 0.07 ± 0.01 %ID/cc; tumor-to-muscle ratio (TMR) ([6]; 3 h p.i.): 2.91 ± 1.01
